Numbers after ± are expanded uncertainties.
Assay: activity coefficient (dimensionless); of the first substance listed, at infinite dilution; xn = mol fraction of the nth substance listed
Details: 323.15 K; 101 kPa; Liquid; Chromatography; x1 = 0

**Q.** Which activity coefficient does the source give for `CCCC(C)=O` [pentan-2-one] + CCCCCCCCCCCC[n+]1ccn(CCCB(O)O)c1.[Br-] here?
**A.** 1.63 ± 0.11

**Q.** For `ClC(Cl)(Cl)Cl` [tetrachloromethane] + C=CC[n+]1ccn(CCCCCCCCCC)c1.[Br-], which activity coefficient is on record?
**A.** 0.8 ± 0.05

**Q.** With `CCCCCCCC` [octane] + C=CC[n+]1ccn(CCCCCCCC)c1.[Br-] as the molecule, how does the activity coefficient read?
**A.** 14.9 ± 1

**Q.** Which activity coefficient does the source give for `CCCCCCC` [heptane] + CCCCCCCCCC[n+]1ccn(CCCB(O)O)c1.[Br-] here?
**A.** 7.04 ± 0.48

**Q.** For `ClCCl` [dichloromethane] + C=CC[n+]1ccn(CCCCCCCCCCCC)c1.[Br-], which activity coefficient is on record?
**A.** 0.25 ± 0.03

**Q.** With `CCCO` [propan-1-ol] + C=CC[n+]1ccn(CCCCCCCCCC)c1.[Br-] as the molecule, how does the activity coefficient read?
**A.** 0.28 ± 0.03

**Q.** Which activity coefficient does the source give for `Cc1ccccc1C` [1,2-dimethylbenzene] + C[n+]1ccn(CCCB(O)O)c1.[Br-] here?
**A.** 44 ± 3

**Q.** For `c1ccsc1` [thiophene] + C=CCn1cc[n+](C)c1.[Br-], which activity coefficient is on record?
**A.** 1.48 ± 0.1

**Q.** Which activity coefficient does the source give for `CO` [methanol] + C=CC[n+]1ccn(CCCCCCCCCC)c1.[Br-] here?
**A.** 0.17 ± 0.03

**Q.** For `CCO` [ethanol] + C=CCn1cc[n+](C)c1.[Br-], which activity coefficient is on record?
**A.** 0.27 ± 0.03

**Q.** Which activity coefficient does the source give for `C1CCCCC1` [cyclohexane] + CCCCCCCCCC[n+]1ccn(CCCB(O)O)c1.[Br-] here?
**A.** 3.89 ± 0.26

**Q.** For `CCCCCCCC` [octane] + C=CC[n+]1ccn(CCCCCCCCCC)c1.[Br-], which activity coefficient is on record?
**A.** 14.3 ± 0.98

**Q.** With `c1ccccc1` [benzene] + C[n+]1ccn(CCCB(O)O)c1.[Br-] as the molecule, how does the activity coefficient read?
**A.** 18.1 ± 1.2

**Q.** Which activity coefficient does the source give for `C#CCCCC` [1-hexyne] + C=CC[n+]1ccn(CCCCCCCCCC)c1.[Br-] here?
**A.** 2.02 ± 0.14

**Q.** Which activity coefficient does the source give for `ClC(Cl)(Cl)Cl` [tetrachloromethane] + C=CCn1cc[n+](C)c1.[Br-] here?
**A.** 1.54 ± 0.1

**Q.** For `C1CCCCC1` [cyclohexane] + C=CC[n+]1ccn(CCCCCCCCCC)c1.[Br-], which activity coefficient is on record?
**A.** 5.64 ± 0.38

**Q.** With `CCOCC` [diethyl ether] + C=CC[n+]1ccn(CCCCCCCCCC)c1.[Br-] as the molecule, how does the activity coefficient read?
**A.** 3.54 ± 0.24

**Q.** For `C1COCCO1` [1,4-dioxane] + C=CC[n+]1ccn(CCCCCCCCCC)c1.[Br-], which activity coefficient is on record?
**A.** 1.39 ± 0.09

**Q.** Which activity coefficient does the source give for `CCCCCCCC` [octane] + CCCCCCCCCCCC[n+]1ccn(CCCB(O)O)c1.[Br-] here?
**A.** 6.34 ± 0.43

**Q.** Which activity coefficient does the source give for `CCCCCCC` [heptane] + CCCCCCCC[n+]1ccn(CCCB(O)O)c1.[Br-] here?
**A.** 20.2 ± 1.4

**Q.** With `C1COCCO1` [1,4-dioxane] + C=CC[n+]1ccn(CCCCCCCC)c1.[Br-] as the molecule, how does the activity coefficient read?
**A.** 1.52 ± 0.1

**Q.** With `CCc1ccccc1` [ethylbenzene] + CCCCCCCCCC[n+]1ccn(CCCB(O)O)c1.[Br-] as the molecule, how does the activity coefficient read?
**A.** 2.37 ± 0.16

**Q.** With `CCCC(C)=O` [pentan-2-one] + CCCCCCCC[n+]1ccn(CCCB(O)O)c1.[Br-] as the molecule, how does the activity coefficient read?
**A.** 2.32 ± 0.16

**Q.** Which activity coefficient does the source give for `ClC(Cl)Cl` [trichloromethane] + C=CC[n+]1ccn(CCCCCCCCCC)c1.[Br-] here?
**A.** 0.13 ± 0.03

**Q.** For `CCCO` [propan-1-ol] + C=CC[n+]1ccn(CCCCCCCC)c1.[Br-], which activity coefficient is on record?
**A.** 0.28 ± 0.03

**Q.** For `ClC(Cl)(Cl)Cl` [tetrachloromethane] + CCCCCCCCCC[n+]1ccn(CCCB(O)O)c1.[Br-], which activity coefficient is on record?
**A.** 0.79 ± 0.05

**Q.** With `Cc1ccccc1C` [1,2-dimethylbenzene] + CCCCCCCC[n+]1ccn(CCCB(O)O)c1.[Br-] as the molecule, how does the activity coefficient read?
**A.** 3.11 ± 0.21

**Q.** Which activity coefficient does the source give for `CC#N` [acetonitrile] + CCCCCCCCCCCC[n+]1ccn(CCCB(O)O)c1.[Br-] here?
**A.** 1.16 ± 0.07

**Q.** For `C#CCCCCC` [1-heptyne] + C[n+]1ccn(CCCB(O)O)c1.[Br-], which activity coefficient is on record?
**A.** 42.9 ± 2.9

**Q.** With `CCc1ccccc1` [ethylbenzene] + CCCCCCCC[n+]1ccn(CCCB(O)O)c1.[Br-] as the molecule, how does the activity coefficient read?
**A.** 3.28 ± 0.22

**Q.** Which activity coefficient does the source give for `CC(C)O` [propan-2-ol] + C=CC[n+]1ccn(CCCCCCCC)c1.[Br-] here?
**A.** 0.36 ± 0.03

**Q.** For `c1ccccc1` [benzene] + C=CC[n+]1ccn(CCCCCCCCCC)c1.[Br-], which activity coefficient is on record?
**A.** 1.39 ± 0.09

**Q.** For `CCCCCCCC` [octane] + C[n+]1ccn(CCCB(O)O)c1.[Br-], which activity coefficient is on record?
**A.** 81 ± 5.5

**Q.** With `CCCC(C)=O` [pentan-2-one] + CCCCCCCCCC[n+]1ccn(CCCB(O)O)c1.[Br-] as the molecule, how does the activity coefficient read?
**A.** 1.67 ± 0.11

**Q.** For `C1COCCO1` [1,4-dioxane] + CCCCCCCC[n+]1ccn(CCCB(O)O)c1.[Br-], which activity coefficient is on record?
**A.** 1.78 ± 0.12

**Q.** For `Cc1cccc(C)c1` [1,3-dimethylbenzene] + CCCCCCCCCCCC[n+]1ccn(CCCB(O)O)c1.[Br-], which activity coefficient is on record?
**A.** 1.98 ± 0.13

**Q.** Which activity coefficient does the source give for `C#CCCCCC` [1-heptyne] + C=CC[n+]1ccn(CCCCCCCC)c1.[Br-] here?
**A.** 2.56 ± 0.17

**Q.** With `c1ccccc1` [benzene] + CCCCCCCC[n+]1ccn(CCCB(O)O)c1.[Br-] as the molecule, how does the activity coefficient read?
**A.** 1.84 ± 0.12

**Q.** With `Cc1ccccc1C` [1,2-dimethylbenzene] + C=CC[n+]1ccn(CCCCCCCCCCCC)c1.[Br-] as the molecule, how does the activity coefficient read?
**A.** 1.66 ± 0.11

**Q.** With `CCCCCCC` [heptane] + C[n+]1ccn(CCCB(O)O)c1.[Br-] as the molecule, how does the activity coefficient read?
**A.** 77.6 ± 5.3

**Q.** For `C1COCCO1` [1,4-dioxane] + CCCCCCCCCCCC[n+]1ccn(CCCB(O)O)c1.[Br-], which activity coefficient is on record?
**A.** 1.32 ± 0.09

**Q.** With `CCC[N+](=O)[O-]` [1-nitropropane] + CCCCCCCCCC[n+]1ccn(CCCB(O)O)c1.[Br-] as the molecule, how does the activity coefficient read?
**A.** 1.19 ± 0.08

**Q.** Which activity coefficient does the source give for `CCC[N+](=O)[O-]` [1-nitropropane] + C=CCn1cc[n+](C)c1.[Br-] here?
**A.** 1.83 ± 0.12

**Q.** For `CCCO` [propan-1-ol] + C=CC[n+]1ccn(CCCCCCCCCCCC)c1.[Br-], which activity coefficient is on record?
**A.** 0.23 ± 0.03

**Q.** With `Cc1ccccc1` [toluene] + C=CC[n+]1ccn(CCCCCCCC)c1.[Br-] as the molecule, how does the activity coefficient read?
**A.** 1.92 ± 0.13

**Q.** With `C#CCCCC` [1-hexyne] + C=CCn1cc[n+](C)c1.[Br-] as the molecule, how does the activity coefficient read?
**A.** 8.27 ± 0.56

**Q.** With `CCC[N+](=O)[O-]` [1-nitropropane] + CCCCCCCCCCCC[n+]1ccn(CCCB(O)O)c1.[Br-] as the molecule, how does the activity coefficient read?
**A.** 1.51 ± 0.1

**Q.** For `CCOCC` [diethyl ether] + C=CCn1cc[n+](C)c1.[Br-], which activity coefficient is on record?
**A.** 11.4 ± 0.78

**Q.** Which activity coefficient does the source give for `CCOCC` [diethyl ether] + C=CC[n+]1ccn(CCCCCCCC)c1.[Br-] here?
**A.** 4.18 ± 0.28
